15 compounds from patent US7538233B2, “Coumarins as iNOS inhibitors” (Aventis Pharmaceuticals Inc., priority 2003, dated 2009) can be followed below.

The IC50 is the concentration at which inhibition is half-maximal.

Common to all, as to type: biochemical
One test deals with Human NOS-2 (Homo sapiens, UniProt P35228). In words: Human NOS-2 assay ([3H]-arginine to [3H]-citrulline conversion). The settings on record: 60 min at 37° C., 2.5 μM L-[3H]arginine; * mean of 3, ** mean of 2 determinations; read-out: Human iNOS, IC50.
Sequence of Human NOS-2 (P35228 whole entry): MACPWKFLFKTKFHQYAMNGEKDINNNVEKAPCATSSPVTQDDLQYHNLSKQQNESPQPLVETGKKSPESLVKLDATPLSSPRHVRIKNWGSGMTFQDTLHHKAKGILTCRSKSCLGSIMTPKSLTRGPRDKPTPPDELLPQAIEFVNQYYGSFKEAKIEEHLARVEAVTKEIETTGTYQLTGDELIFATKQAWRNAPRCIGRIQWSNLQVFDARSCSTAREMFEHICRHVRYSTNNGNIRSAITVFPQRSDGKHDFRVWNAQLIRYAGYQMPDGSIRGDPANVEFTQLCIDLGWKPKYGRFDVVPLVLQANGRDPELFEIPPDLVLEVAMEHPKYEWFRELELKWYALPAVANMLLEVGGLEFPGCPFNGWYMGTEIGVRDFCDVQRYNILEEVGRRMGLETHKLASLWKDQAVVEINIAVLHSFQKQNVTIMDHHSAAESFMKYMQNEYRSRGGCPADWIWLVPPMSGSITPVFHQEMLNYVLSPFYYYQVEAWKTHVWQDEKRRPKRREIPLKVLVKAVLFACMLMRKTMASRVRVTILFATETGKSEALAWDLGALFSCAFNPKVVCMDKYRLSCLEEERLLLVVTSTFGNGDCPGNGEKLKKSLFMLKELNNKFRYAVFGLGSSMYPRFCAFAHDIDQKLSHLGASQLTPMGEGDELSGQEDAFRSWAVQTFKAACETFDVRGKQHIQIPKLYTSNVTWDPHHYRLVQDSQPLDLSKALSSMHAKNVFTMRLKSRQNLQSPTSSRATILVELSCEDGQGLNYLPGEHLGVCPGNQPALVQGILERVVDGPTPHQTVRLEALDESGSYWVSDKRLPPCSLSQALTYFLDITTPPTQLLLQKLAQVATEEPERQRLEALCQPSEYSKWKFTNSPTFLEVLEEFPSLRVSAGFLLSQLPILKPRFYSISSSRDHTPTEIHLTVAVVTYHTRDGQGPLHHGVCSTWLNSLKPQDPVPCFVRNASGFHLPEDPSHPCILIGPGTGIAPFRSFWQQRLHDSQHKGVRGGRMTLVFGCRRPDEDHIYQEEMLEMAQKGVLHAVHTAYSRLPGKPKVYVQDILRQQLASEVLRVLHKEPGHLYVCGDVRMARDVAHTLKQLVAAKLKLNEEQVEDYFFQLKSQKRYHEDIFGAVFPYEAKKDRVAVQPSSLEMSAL
In the next test the target is T1, Bovine NOS-3 (eNOS) (Bos taurus, UniProt P29473).
T1 construct: purchased Cayman Chemical 60880; host or cells: Baculovirus / Sf9 cells
T1 sequence (P29473 2-1205): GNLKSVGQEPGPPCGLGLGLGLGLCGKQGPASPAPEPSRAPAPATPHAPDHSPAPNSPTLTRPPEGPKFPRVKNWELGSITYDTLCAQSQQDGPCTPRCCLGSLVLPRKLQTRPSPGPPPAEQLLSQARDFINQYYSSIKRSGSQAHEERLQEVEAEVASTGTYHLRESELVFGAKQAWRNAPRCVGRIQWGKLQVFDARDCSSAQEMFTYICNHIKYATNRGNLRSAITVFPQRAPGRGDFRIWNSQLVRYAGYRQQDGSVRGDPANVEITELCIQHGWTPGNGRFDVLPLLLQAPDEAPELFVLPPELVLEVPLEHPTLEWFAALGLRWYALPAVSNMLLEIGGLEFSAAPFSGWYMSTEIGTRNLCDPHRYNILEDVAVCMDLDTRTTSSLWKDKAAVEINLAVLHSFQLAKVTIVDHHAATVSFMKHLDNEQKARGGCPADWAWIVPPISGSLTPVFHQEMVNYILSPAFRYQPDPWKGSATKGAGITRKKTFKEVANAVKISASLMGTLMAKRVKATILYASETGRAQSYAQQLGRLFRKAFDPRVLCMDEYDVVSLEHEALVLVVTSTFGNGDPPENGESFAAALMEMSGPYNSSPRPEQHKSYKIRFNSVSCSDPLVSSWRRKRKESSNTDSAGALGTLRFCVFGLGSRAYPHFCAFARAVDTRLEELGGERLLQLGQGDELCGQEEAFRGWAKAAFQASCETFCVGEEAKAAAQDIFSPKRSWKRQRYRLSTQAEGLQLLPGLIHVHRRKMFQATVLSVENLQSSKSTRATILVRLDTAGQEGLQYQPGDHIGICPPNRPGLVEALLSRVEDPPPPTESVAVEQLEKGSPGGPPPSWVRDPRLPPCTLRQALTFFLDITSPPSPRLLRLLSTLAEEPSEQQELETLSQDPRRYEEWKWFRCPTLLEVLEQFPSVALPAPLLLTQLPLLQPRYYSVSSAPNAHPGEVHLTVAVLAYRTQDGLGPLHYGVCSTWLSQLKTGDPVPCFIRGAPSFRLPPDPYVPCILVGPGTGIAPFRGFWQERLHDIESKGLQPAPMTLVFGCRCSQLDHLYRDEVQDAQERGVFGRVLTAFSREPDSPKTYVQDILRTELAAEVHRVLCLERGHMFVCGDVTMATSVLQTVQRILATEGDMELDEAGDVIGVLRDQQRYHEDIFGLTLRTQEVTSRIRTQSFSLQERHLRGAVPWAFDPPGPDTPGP
In words: Bovine NOS-3 (eNOS) assay ([3H]-arginine to [3H]-citrulline conversion). The settings on record: recombinant bovine NOS-3, 120 min, 10 μM L-[3H]arginine; ** mean of 2 determinations.

A further test concerns the target T2, Murine NOS-2 (iNOS) (Mus musculus, UniProt P29477).
T2 construct: purchased Cayman Chemical 60864; host or cells: E. coli
The test can be described thus: Murine NOS-2 (iNOS) assay ([3H]-arginine to [3H]-citrulline conversion). The settings on record: recombinant murine NOS-2, 20 min at 37° C., 10 uM L-[3H]arginine; ** mean of 2 determinations.

A further test concerns the target T3, Rat NOS-1 (nNOS) (Rattus norvegicus, UniProt P29476).
T3 construct: purchased Cayman Chemical 60870; host or cells: Baculovirus / Sf9 cells
The test can be described thus: Rat NOS-1 (nNOS) assay ([3H]-arginine to [3H]-citrulline conversion). The settings on record: recombinant rat nNOS, 20 min at 37° C., 2 μM L-[3H]arginine; * mean of 3 determinations.

T2 sequence (P29477 whole entry): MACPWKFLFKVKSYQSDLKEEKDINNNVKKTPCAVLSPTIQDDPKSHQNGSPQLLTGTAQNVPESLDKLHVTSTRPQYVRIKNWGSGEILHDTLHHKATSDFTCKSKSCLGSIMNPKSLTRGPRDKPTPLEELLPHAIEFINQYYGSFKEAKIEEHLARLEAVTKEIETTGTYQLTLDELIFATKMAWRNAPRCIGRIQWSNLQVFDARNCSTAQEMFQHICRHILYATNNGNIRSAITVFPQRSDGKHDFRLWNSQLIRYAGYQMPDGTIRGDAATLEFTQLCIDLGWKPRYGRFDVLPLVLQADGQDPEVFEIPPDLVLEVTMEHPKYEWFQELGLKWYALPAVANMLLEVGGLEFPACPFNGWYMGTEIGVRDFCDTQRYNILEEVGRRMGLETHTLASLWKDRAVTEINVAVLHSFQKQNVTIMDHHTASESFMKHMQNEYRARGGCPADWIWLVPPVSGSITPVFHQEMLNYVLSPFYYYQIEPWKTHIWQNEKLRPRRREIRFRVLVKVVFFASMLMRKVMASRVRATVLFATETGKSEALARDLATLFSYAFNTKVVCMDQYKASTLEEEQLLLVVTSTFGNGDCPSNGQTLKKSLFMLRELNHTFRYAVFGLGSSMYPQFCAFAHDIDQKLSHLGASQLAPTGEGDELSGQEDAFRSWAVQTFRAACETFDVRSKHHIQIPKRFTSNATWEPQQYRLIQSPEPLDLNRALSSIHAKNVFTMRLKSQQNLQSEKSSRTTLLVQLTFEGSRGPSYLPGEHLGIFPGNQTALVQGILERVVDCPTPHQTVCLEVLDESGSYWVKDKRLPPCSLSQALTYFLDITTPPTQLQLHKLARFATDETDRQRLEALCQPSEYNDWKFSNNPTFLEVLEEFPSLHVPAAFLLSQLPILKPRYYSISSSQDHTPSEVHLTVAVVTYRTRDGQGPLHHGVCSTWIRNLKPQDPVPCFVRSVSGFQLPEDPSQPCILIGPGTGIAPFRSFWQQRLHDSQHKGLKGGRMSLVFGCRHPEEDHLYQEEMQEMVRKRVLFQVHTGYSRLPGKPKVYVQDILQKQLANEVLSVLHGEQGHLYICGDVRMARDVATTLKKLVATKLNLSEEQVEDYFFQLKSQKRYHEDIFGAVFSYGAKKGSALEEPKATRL
T3 sequence (P29476 whole entry): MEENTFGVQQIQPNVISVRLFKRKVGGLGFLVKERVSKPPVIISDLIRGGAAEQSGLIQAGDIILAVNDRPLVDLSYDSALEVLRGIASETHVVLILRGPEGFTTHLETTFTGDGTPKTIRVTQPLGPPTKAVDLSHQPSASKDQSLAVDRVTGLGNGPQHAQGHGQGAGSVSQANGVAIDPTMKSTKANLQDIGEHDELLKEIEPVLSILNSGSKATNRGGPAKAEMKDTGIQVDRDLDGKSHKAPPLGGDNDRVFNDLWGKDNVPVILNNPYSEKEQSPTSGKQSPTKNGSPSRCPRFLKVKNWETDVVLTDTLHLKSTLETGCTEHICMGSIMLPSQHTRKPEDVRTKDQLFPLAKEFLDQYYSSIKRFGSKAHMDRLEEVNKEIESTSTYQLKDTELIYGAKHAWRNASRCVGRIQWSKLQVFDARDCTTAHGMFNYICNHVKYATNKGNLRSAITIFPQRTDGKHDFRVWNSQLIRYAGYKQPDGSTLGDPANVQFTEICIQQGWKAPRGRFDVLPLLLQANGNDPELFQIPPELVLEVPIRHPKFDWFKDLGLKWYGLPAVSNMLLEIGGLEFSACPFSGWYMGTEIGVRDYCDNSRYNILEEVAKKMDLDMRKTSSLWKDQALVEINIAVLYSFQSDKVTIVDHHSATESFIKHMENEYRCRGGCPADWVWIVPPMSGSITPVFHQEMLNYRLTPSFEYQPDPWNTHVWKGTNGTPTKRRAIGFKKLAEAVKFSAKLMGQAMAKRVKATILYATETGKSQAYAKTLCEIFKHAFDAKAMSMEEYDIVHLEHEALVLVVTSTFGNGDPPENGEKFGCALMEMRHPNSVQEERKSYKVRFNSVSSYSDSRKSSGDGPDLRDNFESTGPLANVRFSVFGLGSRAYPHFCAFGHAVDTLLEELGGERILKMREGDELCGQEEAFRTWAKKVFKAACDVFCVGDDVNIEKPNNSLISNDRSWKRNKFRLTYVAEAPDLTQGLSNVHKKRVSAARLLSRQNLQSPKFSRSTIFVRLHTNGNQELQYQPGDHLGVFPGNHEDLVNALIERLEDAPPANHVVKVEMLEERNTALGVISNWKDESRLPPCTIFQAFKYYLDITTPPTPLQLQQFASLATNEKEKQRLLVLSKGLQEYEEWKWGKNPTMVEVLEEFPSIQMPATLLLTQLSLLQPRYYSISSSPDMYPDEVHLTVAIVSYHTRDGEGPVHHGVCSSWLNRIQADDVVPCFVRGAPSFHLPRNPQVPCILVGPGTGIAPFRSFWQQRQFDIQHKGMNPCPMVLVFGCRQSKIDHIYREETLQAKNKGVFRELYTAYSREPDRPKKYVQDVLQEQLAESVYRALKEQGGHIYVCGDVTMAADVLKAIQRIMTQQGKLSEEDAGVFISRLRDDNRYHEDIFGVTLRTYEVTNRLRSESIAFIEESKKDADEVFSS
Experimental for Bovine NOS-3 (eNOS): Experimental conditions (protein concentration, incubation time) required for measuring NOS activity (37° C.) in screening assays are controlled for each batch of enzyme prepared or commercially obtained.
(§1) 0.012 Units recombinant rat nNOS is incubated in Costar polystyrene 96-well microplates 20 min at 37° C. with 2 μM L-[^3H]arginine, 1 mM NADPH, 15 μM 6R-tetrahydrobiopterin, 1 μM FAD, and 10 μg/ml calmodulin prepared in HEPES buffer (50 mM, pH 7.4) containing 0.1 mM DL-dithiothreitol, 1 mM EDTA and 1.25 mM CaCl2 (final volume: 90 μl).
(§2) 0.06 μCi/well L-[^3H]arginine (Amersham; ˜55.0 Ci/mmol, 1 mCi/ml) is used.
(§3) The incubations are terminated by using the Beckman Multimek to transfer 60 ul of the assay solution into Millipore MAHV N45 plates, packed with 80 ul/well 500 mg of AG® 50W-X8 (counterion Na^+) cation exchange resin and pre-washed with 100 ul of HEPES buffer (100 mM, pH 5.5) containing 10 mM EGTA. After filtering under vacuum into opaque scintillation plates, approximately 220 ul of Packard Microscint-40 is added to each well using a Titertek multidrop. The plates are counted on a Packard TopCount to quantify L-[^3H]citrulline by liquid scintillation counting.
(§4) The recovery of L-[^3H]citrulline can be estimated by using L-[ureido-^14C]-citrulline (NEN; 58.8 mCi/mmol) as an external standard (4.05 nCi/0.09 ml). Specific NOS I-like activity corresponds to the L-NNA-sensitive formation of L-citrulline per minute and milligram of protein (pmol/min/unit of protein).
Aliquots of commercial enzyme fraction (quantity used variable from one batch to another, but normally 0.012 Units/90 ul reaction volume) are usually incubated for 120 min in the presence of 10 μM L-[^3H]arginine (0.15 uCi/well).
(§5) For all NOS assays in vitro, the inhibitory activities of screened compounds (usually tested at 10^−9-10^−4 M) are represented by their IC50 values determined by non-linear regression analysis with Activity Base Software (Data management system from IDBS Ltd).
Experimental for Human NOS-2: (§6) Experimental conditions (protein concentration, incubation time) required for measuring NOS activity (37° C.) in screening assays are controlled for each batch of enzyme prepared or commercially obtained. NOS enzymatic assays are based on the conversion of [^3H]-arginine into [^3H]-citrulline originally described by Bredt and Snyder (1990, Proc. Natl. Acad. Sci. USA 87, 682-685).
as §3
Human iNOS is used as 1:30 diluted preparation, is usually incubated for 60 min at 37° C. in the presence of 2.5 μM L-[^3H]arginine (0.06 uCi tracer/well).
as §5
Experimental for Murine NOS-2 (iNOS): A recombinant murine NOS-2 (inducible) preparation is purchased from Cayman Chemical (Catalog N^o 60864). This preparation corresponds to murine NOS-2 expressed in E. Coli, and represents a 100,000×supernatant. To avoid thawing/freezing cycles, this enzymatic preparation is divided into small fractions (25-100 μl) stored at −80° C. until use.
as §6, §2, §3
The recovery of L-[^3H]citrulline can be estimated by using L-[ureido-^14C]-citrulline (NEN; 58.8 mCi/mmol) as an external standard (4.05 nCi/0.09 ml).
as §5
Experimental for Rat NOS-1 (nNOS): To avoid thawing/freezing cycles, this enzymatic preparation is divided into small fractions (25-100 μl) stored at −80° C. until use.
as §6, §1, §2, §3, §4, §5

For the compound `NCCCOc1cc(=O)oc2ccc(Cl)cc12` [Example 1, 6-Chloro-4-(3-aminopropoxy)-1-benzopyran-2-one], the IC50 at Human NOS-2 is 94 nM; on Bovine NOS-3 (eNOS) it was greater than 10000 nM; at Murine NOS-2 (iNOS), 60 nM; at Rat NOS-1 (nNOS), 560 nM.
As for `CN(C)CCCOc1cc(=O)oc2ccccc12` [Example 2, 4-(3-Dimethylamino-propoxy)-1-benzopyran-2-one], the IC50 was 4000 nM on Human NOS-2, greater than 10000 nM at Bovine NOS-3 (eNOS), greater than 10000 nM at Murine NOS-2 (iNOS) and greater than 10000 nM on Rat NOS-1 (nNOS).
As for `CNCCCOc1cc(=O)oc2ccc(Cl)cc12` [Example 3, 6-Chloro-4-(3-methylamino-propoxy)-1-benzopyran-2-one], the IC50 at Human NOS-2 is 110 nM; at Bovine NOS-3 (eNOS), greater than 10000 nM; on Murine NOS-2 (iNOS) it was 250 nM; at Rat NOS-1 (nNOS), 530 nM.
The like results for `NCCCOc1cc(=O)oc2ccc(Br)cc12` [Example 11, 4-(3-Amino-propoxy)-6-bromo-1-benzopyran-2-one] were, in that order, 100 nM, greater than 10000 nM, 140 nM and 360 nM.
For `NCCCOc1cc(=O)oc2ccc(F)cc12` [Example 12, 4-(3-Amino-propoxy)-6-fluoro-1-benzopyran-2-one], the IC50 on Human NOS-2 is 1100 nM; at Bovine NOS-3 (eNOS) it was greater than 10000 nM; at Murine NOS-2 (iNOS), 440 nM; on Rat NOS-1 (nNOS), 1600 nM.
As to `Cc1ccc2oc(=O)cc(OCCCN)c2c1` [Example 14, 4-(3-Amino-propoxy)-6-methyl-1-benzopyran-2-one], the IC50 on Human NOS-2 is 300 nM; at Bovine NOS-3 (eNOS), greater than 10000 nM; at Murine NOS-2 (iNOS), 300 nM; at Rat NOS-1 (nNOS), 650 nM.
Take `NCCCOc1cc(=O)oc2ccccc12` [Example 19, 4-(3-Amino-propoxy)-1-benzopyran-2-one]: the IC50 on Human NOS-2 was 7600 nM; at Bovine NOS-3 (eNOS) it was greater than 10000 nM; at Murine NOS-2 (iNOS) it was 7400 nM; at Rat NOS-1 (nNOS) it was 9100 nM.
Taken in the same sequence, the figures for `CN(C)CCCOc1cc(=O)oc2ccc(Cl)cc12` [Example 22, 6-Chloro-4-(3-dimethylamino-propoxy)-1-benzopyran-2-one] were 4100 nM, greater than 10000 nM, 1200 nM and 8000 nM.
The like results for `Cc1ccc2oc(=O)cc(OCCCN(C)C)c2c1` [Example 23, 4-(3-Dimethylamino-propoxy)-6-methyl-1-benzopyran-2-one] were, in that order, 4700 nM, greater than 10000 nM, 3000 nM and greater than 10000 nM.
Taken in the same sequence, the figures for `N=C(N)NCCCOc1cc(=O)oc2ccc(Cl)cc12` [Example 28, N-[3-(6-Chloro-2-oxo-2H-1-benzopyran-4-yloxy)-propyl]guanidine] were 510 nM, greater than 10000 nM, 390 nM and 500 nM.
Take `NCCCCOc1cc(=O)oc2ccc(Cl)cc12` [Example 31, 4-(4-Amino-butoxy)-6-chloro-1-benzopyran-2-one]: the IC50 on Human NOS-2 was 2000 nM; at Bovine NOS-3 (eNOS) it was greater than 10000 nM; on Murine NOS-2 (iNOS), 1000 nM; on Rat NOS-1 (nNOS), greater than 10000 nM.
In the case of `NCCCCCOc1cc(=O)oc2ccc(Cl)cc12` [Example 32, 4-(5-Amino-pentyloxy)-6-chloro-1-benzopyran-2-one], the IC50 on Human NOS-2 was 1300 nM.
For the compound `O=c1cc(OCC2CCCNC2)c2cc(Cl)ccc2o1` (stereo not drawn) [Example 33, 6-Chloro-4-(piperidin-3-ylmethoxy)-1-benzopyran-2-one], the half-inhibitory concentration (IC50) at Murine NOS-2 (iNOS) was found to be 1500 nM.
For `O=c1cc(OCCC2CCCCN2)c2cc(Cl)ccc2o1` (stereo not drawn) [Example 34, 6-Chloro-4-(2-piperidin-2-yl-ethoxy)-1-benzopyran-2-one], the IC50 on Human NOS-2 was 2000 nM; at Bovine NOS-3 (eNOS), greater than 10000 nM; on Murine NOS-2 (iNOS) it was 4200 nM; at Rat NOS-1 (nNOS) it was 1000 nM.
In the case of `NCCCCc1cc(=O)oc2ccc(Cl)cc12` [Example 57, 4-(4-Aminobutyl)6-chloro-1-benzopyran-2-one], the half-inhibitory concentration (IC50) at Human NOS-2 is 3600 nM.
